One data set relates to Crypt. Neof. Kind of data set: antimicrobial activity, minimal inhibitory concentration, Crypt. Neof. It is filed as cell-based. The procedure:
(§1) The antimicrobial activity of some compounds according to the present invention was measured and the results are shown in the following Tables. The activity is indicated as the minimal inhibitory concentration in μg/ml.

The next data set concerns Trichophyt. Rubrum. As to the kind of experiment: antimicrobial activity, minimal inhibitory concentration, Trichophyt. Rubrum. In kind it is cell-based. The procedure: as §1
For the next data set, the system named is Pseud. Aur. Kind of data set: antimicrobial activity, minimal inhibitory concentration, Pseud. Aur. It is filed as cell-based. The procedure:
as §1

A further data set concerns Cand. Alb. As to the kind of experiment: antimicrobial activity, minimal inhibitory concentration, Cand. Alb. In kind it is cell-based. The procedure: as §1
A further data set relates to Proteus. Kind of data set: antimicrobial activity, minimal inhibitory concentration, Proteus. It is filed as cell-based. The method, then:
as §1

The subject of another data set is B. Cereus. Kind of data set: antimicrobial activity, minimal inhibitory concentration, B. Cereus. It is filed as cell-based. As to conditions: Bacillus cereus. The method, then:
as §1

In another data set the test system is Mycoplasma gallisept. As to the kind of experiment: antimicrobial activity, minimal inhibitory concentration, Mycoplasma gallisept. It is filed as cell-based. The method, then: as §1
A further data set concerns Staph. Aur. As to the kind of experiment: antimicrobial activity, minimal inhibitory concentration, Staph. Aur. It is filed as cell-based. The procedure:
as §1

For data set [1], the system named is E. Coli. Kind of data set: antimicrobial activity, minimal inhibitory concentration, E. Coli. In kind it is cell-based. As to conditions: Escherichia coli. The procedure: as §1
In a further data set the test system is St. aur. Kind of data set: Systemic St. aur infection in mice. In kind it is in vivo. The method, then: (§2) Some compounds of general formula Id were tested also in vivo.
Data set [2] relates to E. Coli. As to the kind of experiment: Systemic E. Coli infection in mice. It is filed as in vivo. The method, then:
as §2

Data set [3] deals with E. Coli. As to the kind of experiment: E. Coli infections chick. It is filed as in vivo. The conditions noted are these: 50 mg/kg. The method, then: as §2
The next data set relates to Salm. Typh. Kind of data set: antimicrobial activity, minimal inhibitory concentration, Salm. Typh. In kind it is cell-based. The conditions noted are these: read-out: minimal inhibitory concentration. The procedure: as §1
In data set [4] the test system is E. Coli. As to the kind of experiment: U. Tract infections in mice (E. Coli). In kind it is in vivo. The conditions noted are these: U. Tract infections (E. Coli), 2,5 mg × 10 days. The method, then:
as §2

The subject of a further data set is Aspergillus Niger. As to the kind of experiment: antimicrobial activity, minimal inhibitory concentration, Aspergillus Niger. In kind it is cell-based. The procedure: as §1
A short description of data set [5]: Acute oral LD50 in chicks. The conditions noted are these: chicken, in vivo.
A further data set in a line: in vivo. The conditions noted are these: mouse, po.
The nature of data set [6]: growth promotion experiment with male turkeys for 4 weeks. It is filed as in vivo. As to conditions: P<0.001. The source says: The results were statistically significant (P<0.001).
The next data set can be described thus: Acute oral LD50 in mice. The conditions noted are these: mouse, in vivo.
Another data set deals with B. Subtilis. Kind of data set: antimicrobial activity, minimal inhibitory concentration, B. Subtilis. As to conditions: Bacillus subtilis. In kind it is cell-based. The procedure: as §1
Setting [7] is: systemic St. aur infection, 2,5 mg × 2 per day.
[8] abbreviates: systemic E. Coli infection, 2,5 mg × 2 per day.

Converted amounts (≈) assume the structure as drawn.

`CN1CCN(NC(=NO)c2c[n+]([O-])c3ccccc3[n+]2[O-])CC1`: the MIC against Crypt. Neof. was 10 to 25 µg/mL (≈ 31.4 to 78.5 µM); against Trichophyt. Rubrum it was 25 µg/mL (≈ 78.5 µM); with Pseud. Aur., 11 to 100 µg/mL (≈ 34.6 to 314 µM); against Cand. Alb. it was 25 µg/mL (≈ 78.5 µM); against Proteus it was 11 to 100 µg/mL (≈ 34.6 to 314 µM); against B. Cereus, 50 µg/mL (≈ 157 µM). Also, the MIC with Mycoplasma gallisept is 2 µg/mL (≈ 6.28 µM); against Staph. Aur., 50 µg/mL (≈ 157 µM); with E. Coli [1], 25 µg/mL (≈ 78.5 µM).
Consider `CNC(=NO)c1c[n+]([O-])c2ccccc2[n+]1[O-]` [Example 18 (methylamino), 2-(N-methylamino)-carboxaldoxime-quinoxaline-1,4-dioxide], for which the Protection result with St. aur (setting [7]), in the data set on E. Coli [2] (setting [8]) and with E. Coli [3] was “+ (indicates protection >80%)” throughout. For the same compound, the MIC with Proteus was 11 to 100 µg/mL (≈ 47 to 427 µM); in the data set with B. Cereus, 25 µg/mL (≈ 107 µM); in the data set with Mycoplasma gallisept, 10 to 20 µg/mL (≈ 42.7 to 85.4 µM); with Staph. Aur., 10 µg/mL (≈ 42.7 µM); in the data set on Salm. Typh. it was 25 µg/mL (≈ 107 µM); against E. Coli [1], 25 µg/mL (≈ 107 µM).
For `CCCNC(=NO)c1c[n+]([O-])c2ccccc2[n+]1[O-]` [Example 20, 2-(propylamino)-carboxamidoxime-quinoxaline-1,4-dioxide], the MIC against Crypt. Neof. is 11 to 100 µg/mL (≈ 41.9 to 381 µM); with Trichophyt. Rubrum, 11 to 100 µg/mL (≈ 41.9 to 381 µM); in the data set with Pseud. Aur. it was 10 µg/mL (≈ 38.1 µM); against Cand. Alb. it was 11 to 100 µg/mL (≈ 41.9 to 381 µM); with Proteus, 11 to 100 µg/mL (≈ 41.9 to 381 µM); against Aspergillus Niger it was 11 to 100 µg/mL (≈ 41.9 to 381 µM). Also, the MIC in the data set with B. Cereus was 25 µg/mL (≈ 95.3 µM); in the data set on Mycoplasma gallisept, 25 to 50 µg/mL (≈ 95.3 to 191 µM); with Staph. Aur., 10 µg/mL (≈ 38.1 µM); with Salm. Typh., 25 µg/mL (≈ 95.3 µM); with E. Coli [1], 25 µg/mL (≈ 95.3 µM). For the same compound, the Protection result is on record as “- (indicates protection <50%)” in the data set on St. aur (systemic St. aur infection, 5 mg × 2 per day); “+ (indicates protection >80%)” in the data set on E. Coli [2] (setting [8]); “+ (indicates protection >80%)” with E. Coli [4].
Regarding `[O-][n+]1cc(C(=NO)NN2CCOCC2)[n+]([O-])c2ccccc21` [Example 25, 2-(N-morpholinoamino)-carboxamidoxime-quinoxaline-1,4-dioxide], the 50% lethal dose (LD50) was determined as 428 mg/kg in data set [5] and 1240 mg/kg in the data set “in vivo”.
`CN1CCN(C(=NO)c2c[n+]([O-])c3ccccc3[n+]2[O-])CC1` [Example 26a, 2-(4'-methyl-piperazino)-carboxaldoxime-quinoxaline-1,4-dioxide]: the “increase in weight gain” value in data set [6] (50 g/ton in the feed) was determined as 15.6%. Further, the LD50 in data set [5] amounted to 400 mg/kg; in the data set “in vivo”, 1240 mg/kg.
Regarding `CN(C)C(=NO)c1c[n+]([O-])c2ccccc2[n+]1[O-]` [Example 30, 2-(dimethylamino)-carboxaldoxime-quinoxaline-1,4-dioxide], the Protection entry was “+/- (indicates protection 50-80%)” with St. aur (setting [7]), “+ (indicates protection >80%)” in the data set with E. Coli [2] (setting [8]), “+ (indicates protection >80%)” in the data set on E. Coli [4] and “+ (indicates protection >80%)” in the data set on E. Coli [3]. Further, the MIC was found to be 50 µg/mL (≈ 201 µM) against B. Cereus, 10 µg/mL (≈ 40.3 µM) in the data set on Staph. Aur. and 10 µg/mL (≈ 40.3 µM) against E. Coli [1].
As for `CCOC(=O)NNC(=NO)c1c[n+]([O-])c2ccccc2[n+]1[O-]` [Example 35, 2-(carbazinic acid ethyl ester)-carboxaldoxime-quinoxaline-1,4-dioxide], the Protection entry in the data set with St. aur (setting [7]) is reported as “+ (indicates protection >80%)”; in the data set with E. Coli [2] (systemic E. Coli infection, 1,25 mg × 2 per day), “+ (indicates protection >80%)”; with E. Coli [4] it was “+ (indicates protection >80%)”. In addition, the “increase in weight gain” value in [6] (30 g/ton in the feed) came out at 18.7%; in data set [6] (50 g/ton in the feed) it was 18.5%; in data set [6] (75 g/ton in the feed), 16%. Besides, the median lethal dose (LD50) in [5] turned out to be 1500 mg/kg; in the data set “Acute oral LD50 in mice”, 4950 mg/kg. In addition, the MIC against Mycoplasma gallisept is 10 to 25 µg/mL (≈ 32.5 to 81.4 µM); in the data set on Staph. Aur., 10 µg/mL (≈ 32.5 µM); with Salm. Typh. it was 10 to 25 µg/mL (≈ 32.5 to 81.4 µM); against E. Coli [1], 40 to 50 µg/mL (≈ 130 to 163 µM); against B. Subtilis, 10 µg/mL (≈ 32.5 µM).
As for `[O-][n+]1cc(C(=NO)NN2CCOCC2)[n+]([O-])c2ccccc21` [drawing 8], the Protection entry in the data set on St. aur (setting [7]) is reported as “+ (indicates protection >80%)”; in the data set with E. Coli [2] (setting [8]), “+ (indicates protection >80%)”; with E. Coli [3] it was “- (indicates protection <50%)”.

The values are drawn from patent US4317824A, “Derivatives of quinoxaline-1,4-dioxides” (Abic, Ltd., priority 1976, dated 1982).
